{
  "source": "patent US11534434B2",
  "about": "(Karuna Therapeutics, Inc., priority 2019, dated 2022)",
  "key": {"[1]": {"molecular_target": "T1, human M3 mAChR (Homo sapiens, UniProt P20309)", "T1 construct": "expressed in transfected cells", "T1 sequence (P20309 whole entry)": "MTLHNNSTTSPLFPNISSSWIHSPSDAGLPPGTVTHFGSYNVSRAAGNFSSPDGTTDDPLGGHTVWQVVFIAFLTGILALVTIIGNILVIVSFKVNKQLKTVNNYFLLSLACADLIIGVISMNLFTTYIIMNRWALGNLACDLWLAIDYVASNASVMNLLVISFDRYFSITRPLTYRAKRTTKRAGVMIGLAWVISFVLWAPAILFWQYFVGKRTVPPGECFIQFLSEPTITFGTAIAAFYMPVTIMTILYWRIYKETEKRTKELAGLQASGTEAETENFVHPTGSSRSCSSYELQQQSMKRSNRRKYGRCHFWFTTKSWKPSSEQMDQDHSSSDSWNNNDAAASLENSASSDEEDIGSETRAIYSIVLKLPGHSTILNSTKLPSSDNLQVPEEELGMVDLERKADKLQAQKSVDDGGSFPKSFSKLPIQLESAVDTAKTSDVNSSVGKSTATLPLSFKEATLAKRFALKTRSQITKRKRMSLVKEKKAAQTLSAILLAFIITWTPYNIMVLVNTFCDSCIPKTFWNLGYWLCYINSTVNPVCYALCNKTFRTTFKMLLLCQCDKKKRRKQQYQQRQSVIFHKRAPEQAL", "assay": "Whole-cell functional agonist activity, FLIPR Ca2+ release, U2OS-based human M3 mAChR stable cell line", "settings": "for EC50: agonist, FLIPR Ca2+ release, U2OS human M3 cells; for Emax: top of curve, % activity vs MAX control ligand, FLIPR Ca2+", "excerpt": "(§1) Whole-cell functional agonist activity in cells expressing recombinant human muscarinic receptor subtypes.\n(§2) ThermoFisher's FLIPR™ (Fluorescence Imaging Plate Reader) was used to quantify Ca^2+ release, a functional effect associated with Gaq-coupled M1 and M5 mAChRs. CisBio's phospho-ERK (pERK) Thr202/Tyr204 was used to evaluate Gai/o-coupled M2 and M4 mAChRs responses.\nOne day before the assay, M1, M3, and M5 cells were thawed out and plated at 10,000 cells/well into black-walled, clear-bottom, Poly-D-lysine coated 384-well microplates and incubated at 37° C. and 5% CO2 in MEME+10% FBS+1× penicillin/streptomycin/glutamine, for the M1 and M3 cell lines and F-12+10% FBS+1× penicillin/streptomycin/glutamine for the M5 cell line. On the day of the test, the media was aspirated and replaced with […] fluo-4 dye loading buffer (1× dye, 1× additive A and 2.5 mM fresh probenecid in HBSS and 20 mM HEPES) and incubated at 37° C. and 5% CO2 for 45 minutes. After the incubation, cells were removed from the incubator, […] of HBSS and 20 mM HEPES was added for a total volume of […], and the cells were allowed to equilibrate at room temperature for 15 minutes in the dark before compounds were applied, by adding 4× compound solution in […] of HBSS, 0.4% DMSO and 20 mM HEPES buffer (made from a 10 mM compound stock solution in 100% DMSO), and responses were recorded for 2 minutes in FLIPR Tetra after compound administration. The M1 and M5 responses were analyzed using the CBIS data analysis suite (ChemInnovation, CA).\n(§3) Percentage activity was calculated using the following formula: % Activity=100%×(mean RFU of test sample mean RFU of vehicle control)/(mean MAX RFU control ligand mean RFU of vehicle control) where RFU is relative fluorescence unit. The M2 and the M4 cells were thawed out one day before the assay and plated at 2,000 and 1,000 cells per well, respectively, in […] of DMEM/F12+10% FBS in ProxiPlate 384-well white-walled, white-bottom tissue culture-treated plates and incubated at 37° C. and 5% CO2 overnight. Before the assay, cells were serum-starved at 37° C. in 5% CO2 for 4 hours by replacing culture media with […] of F12 media with 8 mM HEPES. The pERK assay was run according to assay kit instructions with minor volume modifications outlined below."}, "[2]": {"molecular_target": "T2, human M4 mAChR (Homo sapiens, UniProt P08173)", "T2 construct": "expressed in transfected cells", "T2 sequence (P08173 1-479)": "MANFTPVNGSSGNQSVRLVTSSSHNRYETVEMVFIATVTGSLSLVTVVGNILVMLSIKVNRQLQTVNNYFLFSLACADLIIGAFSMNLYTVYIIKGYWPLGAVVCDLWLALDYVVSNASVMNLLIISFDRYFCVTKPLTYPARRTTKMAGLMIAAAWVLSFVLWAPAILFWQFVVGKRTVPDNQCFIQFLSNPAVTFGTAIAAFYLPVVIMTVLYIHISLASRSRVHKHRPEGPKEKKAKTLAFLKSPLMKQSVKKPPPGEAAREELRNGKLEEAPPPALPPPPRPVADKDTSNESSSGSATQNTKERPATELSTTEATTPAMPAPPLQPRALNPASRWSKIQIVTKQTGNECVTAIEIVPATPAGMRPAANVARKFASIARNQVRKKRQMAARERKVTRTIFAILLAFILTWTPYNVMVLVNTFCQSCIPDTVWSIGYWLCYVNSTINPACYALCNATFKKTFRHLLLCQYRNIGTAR", "assay": "Whole-cell functional agonist activity, phospho-ERK (pERK), CHOK1-based human M4 mAChR stable cell line", "settings": "for EC50: agonist, CHOK1 human M4 cells; for M4 Top (%): top of curve, % of min (DMSO) and max (10 mM Acetylcholine) responses", "experimental": "as §1, §2, §3\nCompound addition was carried out by adding 3× compound solution in […] of media with 0.3% DMSO (made from a 10 mM compound stock solution in 100% DMSO) for 5 minutes before the reaction was terminated by adding […] lysis and blocking solution. Cells were left in the lysis solution for 30 minutes before […] of antibody (Eu and d2) solution was added for an additional 2-hour incubation while protected from light. The plates were then read on laser Pherastar using the TR-FRET protocol."}, "[3]": {"assay": "Storage stability of the tartrate salt (reanalysis by LC-MS, 1H NMR, 19F NMR)", "type": "physicochemical", "settings": "six months of storage at 0° C.; LC-MS, 1H NMR, 19F NMR", "experimental": "The tartrate salt of the title compound was unstable at test storage conditions. Although the initial NMR spectra were clean, the LCMS purity was about 75%. After storage at 0° C. for six months, the sample was reanalyzed by ^1H-NMR, ^19F-NMR, and LC-MS."}},
  "data": [
    {"compound": "CN1CCC=C(c2nsnc2OCCCCCC(F)F)C1", "note": "[Example 6, 3-((6,6-difluorohexyl)oxy)-4-(1-methyl-1,2,5,6-tetrahydropyridin-3-yl)-1,2,5-thiadiazole]", "values": [
      {"measurement": "EC50", "setting": "[1]", "result": "> 10000", "unit": "nM"},
      {"measurement": "Emax", "setting": "[1]", "result": 11, "unit": "%"},
      {"measurement": "EC50", "setting": "[2]", "result": 11, "unit": "nM"},
      {"measurement": "M4 Top (%)", "setting": "[2]", "result": 108, "unit": "%"}
    ]},
    {"compound": "CN1CCC=C(c2nsnc2OCCCCC(C)(F)F)C1", "note": "[Example 8, 3-((5,5-Difluorohexyl)oxy)-4-(1-methyl-1,2,5,6-tetrahydropyridin-3-yl)-1,2,5-thiadiazole]", "values": [
      {"measurement": "EC50", "setting": "[1]", "result": "> 10000", "unit": "nM"},
      {"measurement": "Emax", "setting": "[1]", "result": 7, "unit": "%"},
      {"measurement": "EC50", "setting": "[2]", "result": 12.6, "unit": "nM"},
      {"measurement": "M4 Top (%)", "setting": "[2]", "result": 48, "unit": "%"}
    ]},
    {"compound": "CN1CCC=C(c2nsnc2OCCCCCC(F)(F)F)C1", "note": "[Example 1, 3-(1-Methyl-1,2,5,6-tetrahydropyridin-3-yl)-4-((6,6,6-trifluorohexyl)oxy)-1,2,5-thiadiazole]", "values": [
      {"measurement": "EC50", "setting": "[1]", "result": "> 10000", "unit": "nM"},
      {"measurement": "Emax", "setting": "[1]", "result": 16, "unit": "%"},
      {"measurement": "EC50", "setting": "[2]", "result": 15.7, "unit": "nM"},
      {"measurement": "M4 Top (%)", "setting": "[2]", "result": 82, "unit": "%"},
      {"measurement": "storage stability of tartrate salt", "setting": "[3]", "result": "no meaningful changes were observed"}
    ]},
    {"compound": "CN1CCC=C(c2nsnc2OCCCCCCF)C1", "note": "[Example 7, 3-((6-Fluorohexyl)oxy)-4-(1-methyl-1,2,5,6-tetrahydropyridin-3-yl)-1,2,5-thiadiazole]", "values": [
      {"measurement": "EC50", "setting": "[1]", "result": "> 10000", "unit": "nM"},
      {"measurement": "Emax", "setting": "[1]", "result": 7, "unit": "%"},
      {"measurement": "EC50", "setting": "[2]", "result": 8.3, "unit": "nM"},
      {"measurement": "M4 Top (%)", "setting": "[2]", "result": 112, "unit": "%"}
    ]},
    {"compound": "CCC(F)(F)CCCOc1nsnc1C1=CCCN(C)C1", "note": "[Example 9, 3-((4,4-Difluorohexyl)oxy)-4-(1-methyl-1,2,5,6-tetrahydropyridin-3-yl)-1,2,5-thiadiazole]", "values": [
      {"measurement": "EC50", "setting": "[1]", "result": "> 10000", "unit": "nM"},
      {"measurement": "Emax", "setting": "[1]", "result": 2, "unit": "%"},
      {"measurement": "EC50", "setting": "[2]", "result": "> 34", "unit": "nM"},
      {"measurement": "M4 Top (%)", "setting": "[2]", "result": 5, "unit": "%"}
    ]},
    {"compound": "CCCCC(F)(F)COc1nsnc1C1=CCCN(C)C1", "note": "[Example 11, 3-((2,2-Difluorohexyl)oxy)-4-(1-methyl-1,2,5,6-tetrahydropyridin-3-yl)-1,2,5-thiadiazole]", "values": [
      {"measurement": "EC50", "setting": "[1]", "result": "> 10000", "unit": "nM"},
      {"measurement": "Emax", "setting": "[1]", "result": 3, "unit": "%"},
      {"measurement": "EC50", "setting": "[2]", "result": 374, "unit": "nM"},
      {"measurement": "M4 Top (%)", "setting": "[2]", "result": 62, "unit": "%"}
    ]}
  ]
}
